Measured values reported in the COVID Moonshot data (paper PMC11187573), “Identification of SARS-CoV-2 Mpro inhibitors through deep reinforcement learning for de novo drug design and computational chemistry approaches” (RSC Medicinal Chemistry, 2024).

Columns and labels:
[1] = target: SARS-CoV-2 Main Protease (SARS-CoV-2) (UniProt P0DTD1)
[2] = target: SARS-CoV-2 Main Protease (SARS-CoV-2) (UniProt P0DTD1); remark: listed apart in the source
[3] = target: trypsin (UniProt P07477)
Sequence of trypsin (P07477 whole entry, looked up): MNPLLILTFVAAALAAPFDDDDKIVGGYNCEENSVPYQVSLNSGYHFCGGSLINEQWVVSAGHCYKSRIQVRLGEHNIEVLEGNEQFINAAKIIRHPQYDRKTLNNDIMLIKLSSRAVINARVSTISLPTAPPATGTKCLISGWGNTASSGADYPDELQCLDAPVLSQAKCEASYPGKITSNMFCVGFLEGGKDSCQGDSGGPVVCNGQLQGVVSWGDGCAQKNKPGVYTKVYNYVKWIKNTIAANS

SMILES | inhibition ([1]; 20.0 µM) [%] | inhibition ([1]; 50.0 µM) [%] | IC50 [2] [µM] | inhibition ([2]; 50.0 µM) [%] | IC50 [3] [µM] | relative solubility at 20 uM | relative solubility at 100 uM | inhibition ([2]; 20.0 µM) [%] | IC50 [1] [µM]
COc1cc(CN2CCN(C(=O)CCl)CC2)c2ccccc2c1 | 82.8 | 90.9 | 1.62 | 100 | 81.7 | 1 | 0.95 |  | 
O=C(CCl)N1CCCc2cc(NCc3ccc(F)cc3Cl)ccc21 | 25.3 | 52.5 |  |  | 51.8 | 0.81 | 0.39 | 47.9 | 
C=CC(=O)N(c1ccc(C(C)(C)C)cc1)C(C(=O)Nc1ccc2c(c1)OCO2)c1cccnc1 (stereo unspecified) | 41.1 | 60.4 | 62.1 | 100 | 72.5 |  |  |  | 
O=C(CCl)N1CCN(Cc2cc(Cl)ccc2CNC(=O)N2CCOCC2)CC1 | 77.2 | 79 | 5.55 | 93.3 | 15.8 | 0.98 | 0.94 |  | 
C=CC(=O)N(c1ccc(C2(C)CC2)cc1)C(C(=O)Nc1ccc(Br)cc1)c1cccnc1 (stereo unspecified) |  | 47.1 | 19.4 | 67.8 | 58.2 | 1 | 1.01 | 2.51 | 
O=C(CCl)N1CCN(C(c2ccccc2)c2ccccc2)CC1 |  | 108 | 0.386 | 100 |  | -0.2 | 0.01 | 100 | 
CCC(C)CC(=O)N1CCCC(NC(=O)Cn2c(C)cc(C)nc2=O)CC1 (stereo unspecified) | -4.95 | -19.4 |  | -29.6 |  | 0.98 | 1 |  | 
Cc1ccncc1NC(=O)CCNC(=O)c1ccccc1F |  | -15.8 |  | 0 |  | 1 | 1 | 0 | 
COc1ccccc1OCCNC(=O)c1cc(=O)[nH]c2ccc(Cl)cc12 | -2.31 | 34.1 |  | 23 |  | 0.93 | 0.66 |  | 
NS(=O)(=O)c1ccc(C(=O)N2Cc3ccccc3C(c3ccccc3)C2)cc1 (stereo unspecified) | 0.809 | 8.23 |  |  |  | 0.95 | 0.96 | 0 | 
Cc1csc(C(=O)N/N=C/c2cccnc2)c1N | -0.86 | -19.8 |  | -6.32 |  | 0.99 | 0.93 |  | 
COc1ccc2c(c1)CN(C(=O)CCl)C(c1ccccc1)C2 (stereo unspecified) | 97.4 | 97.5 | 1.78 | 100 |  | 0.98 | 0.96 |  | 
N#Cc1ccc(Nc2ccc(NC(=O)Nc3cccnc3)cc2)nc1 | -1.31 | -3.7 |  | 0 |  | 1 | 0.91 | 0 | 
CN(C(=O)Cn1nnc2ccccc21)c1ccc(Oc2ccc(C(F)(F)F)cn2)cc1 | 30.2 | 59.4 |  | 19.2 |  | 0.98 | 0.87 |  | 
O=C(Nc1nnc(-c2ccccn2)o1)C1CCN(S(=O)(=O)c2ccc(F)cc2)CC1 | 3.87 | -71 |  | 0 |  | 0.95 | 0.96 |  | 
NS(=O)(=O)c1ccc2c(c1)CN(CC1CCN(C(=O)CCl)CC1)CC2 | 30.8 | 60.3 | 31.2 | 91.1 |  | 1 | 1 |  | 
NC(=O)C1Cc2ccccc2N(CC(=O)Nc2cnccn2)C1 (stereo unspecified) | 0.0292 | 6.19 |  | 0 |  | 1 | 0.93 | 0 | 
CC(=O)N1CCN(Cc2cccc(C#N)c2)CC1 | -0.339 | 6.59 |  |  |  | 1 | 0.99 | 0 | 
C=CC(=O)N(c1ccc(C(C)(C)C)cc1)C(C(=O)NC1CCC1)c1cccnc1 (stereo unspecified) | 6.16 | 12 |  | 51.9 |  | 1 | 1 | 0 | 
CC(C)N(C)C(=O)C1CCN(C(=O)CCl)CC1 | 17.3 | 38.8 |  |  |  | 1 | 1 | -0.0976 | 
O=C(Cc1cccc(Cl)c1)Nn1cnc2ccccc2c1=O | 70.9 | 87 |  | 0 |  | 1 | 1 |  | 
C=CC(=O)N(c1ccc(C(C)C)nc1)C(C(=O)Nc1ccc(OC)cc1C)c1cccnc1 (stereo unspecified) | 6.56 | 10.4 |  |  |  | 0.98 | 0.93 | 0 | 

SMILES | inhibition ([1]; 20.0 µM) [%] | inhibition ([1]; 50.0 µM) [%] | IC50 [2] [µM] | inhibition ([2]; 50.0 µM) [%] | IC50 [3] [µM] | relative solubility at 20 uM | relative solubility at 100 uM | inhibition ([2]; 20.0 µM) [%] | IC50 [1] [µM]
O=C(CC(=O)N1CCOCC1)NC1CCCCC1 | 19.8 | 6.01 |  | 0 |  | 0.99 | 1 | 0 | 
O=C(Cc1cccnc1)Nc1cc(Cl)ccc1O | -1.54 | 23.3 |  | 6.62 |  | 1.01 | 0.98 |  | 
C=CC(=O)N(c1cc(C)cc(N)c1)C(C(=O)NC(C)(C)C)c1cccnc1 (stereo unspecified) | -15.1 | -19.4 |  | 0 |  | 0.99 | 0.98 | 0 | 
O=C(c1ccccc1)N1CCN(C(=O)C2CCOCC2)CC1 | 2.9 | 6.27 |  | 5.34 |  | 1 | 1 | 0.98 | 
C=CC(=O)N(c1ccc(S(F)(F)(F)(F)F)cc1)C(C(=O)Nc1ccc(OC)cc1)c1cccnc1 (stereo unspecified) | 15.7 | 30.6 |  |  |  | 0.83 | 0.71 | 10.4 | 
O=C(CCl)Nc1cccc(-c2ccc3c(c2)CCCC3)c1 | 10.8 | 15.2 |  | 47.7 |  | 0.9 | 0.87 |  | 
O=C(NCC1COc2ccccc2O1)c1cc(=O)[nH]c2ccc(F)cc12 (stereo unspecified) | 3.84 | 18.6 |  | 16.4 |  | 1 | 0.79 |  | 
O=C1CC(c2cccc(NC(=O)Cc3cncnc3)c2)CN1 (stereo unspecified) | 3.83 | 10.8 |  | 0 |  | 1 | 1 |  | 
Cc1cccc(C)c1OCC(=O)N[C@@H](Cc1ccccc1)[C@@H](O)C[C@H](Cc1ccccc1)NC(=O)[C@H](C(C)C)N1CCCNC1=O (stereo in doubt) | 7.22 | 13 |  |  |  | 0.83 | 0.53 | 0 | 
Cc1ccc(C)c(S(=O)(=O)N2CCN(C(=O)CCl)CC2)c1 |  | 101 |  | 96.3 |  | 0.99 | 0.98 | 90.8 | 
N#Cc1cccc(CNc2ccc(O)cc2)c1 | 9.73 | 2.32 |  | 22.7 |  | 1 | 1 | 19.8 | 
C=CC(=O)N(c1ccc(C(C)(C)C)cc1)C(C(=O)NC(C)(C)C)c1cncc(Br)c1C (stereo unspecified) | -4.32 | 7.84 |  | 35.3 |  | 0.98 | 0.92 | 12.9 | 
CN(C)C/C=C/C(=O)NCc1c[nH]c2ccccc12 | 3.86 | 0.744 |  |  |  | 0.96 | 0.98 | 0 | 
N#CC(C(=O)Nc1ccccc1)C(=O)c1cccc(Cl)c1 (stereo unspecified) | 24.1 | 44 |  | 0 |  | 0.98 | 0.98 | 0 | 
C#CCN1CCN(C(=O)CCl)CC1 |  | 27.2 |  | 7.12 |  | 1 | 1 | 6.86 | 
C=CC(=O)N(c1ccc(C(C)(C)C)cc1)C(C(=O)NC(C)(C)C)c1cncc(Cl)c1 (stereo unspecified) | 34.6 | 19.6 |  | 13.5 |  | 0.99 | 0.86 | 0 | 
C=CC(=O)N(c1ccc(C(C)(C)C)cc1)C(C(=O)NC)c1cccnc1 (stereo unspecified) | 42.1 | 69.7 | 17 | 100 |  | 1.01 | 0.99 | 57.4 | 
C=CC(=O)N(c1ccc2ncsc2c1)C(C(=O)Nc1ccc(Cl)cc1)c1cccnc1 (stereo unspecified) | 8.95 | 25.3 |  |  |  | 0.87 | 0.69 | 2.57 | 
C=CC(=O)N(c1ccc(C(C)(C)C)cc1)C(C(=O)NC(C)(C)C)c1cncc(OCC)c1 (stereo unspecified) | -1.87 | 2.59 |  | 15 |  | 0.99 | 0.89 | -0.816 | 
O=C(Nc1ccnnc1)NC(Cc1ccccc1)C(=O)N1CCCC1 (stereo unspecified) | 0.0835 | 3.23 |  | 0 |  | 1 | 1 | 0 | 
Cc1ccncc1NC(=O)CCNc1ccc(S(N)(=O)=O)cc1 |  | -27.1 |  | 0 |  | 1 | 1 | 0 | 
NS(=O)(=O)c1ccc(N2CCC(CN3CCCCC3)CC2)cc1 | -23.1 | -2.58 |  | 22.7 |  | 1 | 1.01 |  | 

SMILES | inhibition ([1]; 20.0 µM) [%] | inhibition ([1]; 50.0 µM) [%] | IC50 [2] [µM] | inhibition ([2]; 50.0 µM) [%] | IC50 [3] [µM] | relative solubility at 20 uM | relative solubility at 100 uM | inhibition ([2]; 20.0 µM) [%] | IC50 [1] [µM]
O=C(Cc1ccccc1)Nc1cccc(OC2CC(=O)N2)c1 (stereo unspecified) | -2.28 | -0.808 |  | 0 |  | 1 | 1 |  | 
COC1CCN(c2ccc(S(N)(=O)=O)cc2)CC1 | 2.98 | 6.82 |  | 35.4 |  | 1 | 1 | 29.7 | 
CC(NC(=O)Nc1cccc(N2CCCCC2=O)c1)c1ccn[nH]1 (stereo unspecified) | -8.95 | -2.76 |  | 0 |  | 1 | 1 |  | 
CNS(=O)(=O)c1ccc(C(C)NC(=O)NC(C)(C)C)cc1 (stereo unspecified) | -0.809 | -0.25 |  | 0 |  | 1 | 1 | 0 | 
C=CC(=O)N(c1ccc(C2(C)CC2)cc1)C(C(=O)Nc1cccc(F)c1C)c1cccnc1 (stereo unspecified) |  | 34.7 |  | 1.04 |  | 1 | 1 | 0 | 
COc1ccc2[nH]cc(CCNC(C)=O)c2c1 | 1.37 | -0.962 |  |  |  | 1 | 0.99 | 0 | 
CN(Cc1ccc(OCc2cccs2)cc1)C(=O)Cn1nnc2ccccc21 | 2.49 | 10.2 |  |  |  | 0.56 | -0.05 | 0 | 
O=C(NCCN1CCN(C(=O)CCl)CC1)c1ccccc1 | 0.205 | 18.1 |  |  |  | 1 | 1.01 | 0.871 | 
C=CC(=O)N(c1ccc2ncsc2c1)C(C(=O)NC(C)(C)C)c1cccnc1 (stereo unspecified) | 9.29 | 0.772 |  |  |  | 1 | 1 | 0 | 
Cc1noc(C)c1CS(=O)(=O)Cc1cccc(Cl)c1 | 1.07 | -0.0149 |  | 0 |  | 0.99 | 1 |  | 
CC(=O)NCc1cccc(NC(=O)Cc2cncnc2)c1 | 3.15 | 6.22 |  | 0 |  | 1.01 | 1 |  | 
C=CC(=O)N(c1ccc(C(C)(C)C)cc1)C(C(=O)Nc1ccc2c(c1)OCCO2)c1cccnc1 (stereo unspecified) | 2.83 | 18.1 |  | 30.8 |  | 0.98 | 0.75 | 7.68 | 
Cc1nnc(CNC(=O)C2CCOc3ccc(Cl)cc32)n1C1CC1 (stereo unspecified) | 6.91 | 0.282 |  | 0 |  | 1 | 1 |  | 
COc1cccc2c1OCC(NC(=O)c1cc(=O)[nH]c3ccc(F)cc13)C2 (stereo unspecified) | 2.25 | 19 |  | 11 |  | 0.96 | 0.81 |  | 
COc1ccccc1N1CCN(C(=O)c2cc(=O)[nH]c3ccccc23)CC1 | 39 | 62.8 |  | 14.8 |  | 1 | 0.99 |  | 
O=C(NCCOc1ccccc1)c1cc(=O)[nH]c2ccccc12 | 12.7 | 54.6 |  | 3.05 |  | 1 | 1 |  | 
C=CC(=O)N(c1ccc(C(C)(C)C)cc1)C(C(=O)Nc1ccc(OC)nc1)c1cccnc1 (stereo unspecified) | 1.08 | 13.4 |  | 0 |  | 1 | 1 | 0 | 
O=C(Cc1cncnc1)Nc1cccc(CCCc2ccccc2)c1 | 1.12 | 10.1 |  | 0 |  | 0.96 | 0.94 | 0 | 
COc1ccccc1OCC(C)NC(=O)c1cc(=O)[nH]c2cc(F)ccc12 (stereo unspecified) | 46.9 | 78.4 |  | 22 |  | 1 | 0.99 |  | 33
C=CC(=O)N(c1cc(C(C)(C)C)n[nH]1)C(C(=O)Nc1c(C)cccc1CC)c1cccnc1 (stereo unspecified) | 4.05 | 4.71 |  |  |  | 0.92 | 0.78 | 0 | 
Cc1ccc(NC2CCN(c3ccc(S(N)(=O)=O)cc3)CC2)cc1 | 2.67 | 5.62 |  | 40 |  | 0.92 | 0.84 | 28.4 | 
